We go through 13 compounds from PubChem BioAssay AID330 (DTP/NCI, 2004).

This assay has as its system P388 leukemia ip, CD2F1 mice, survival T/C. The assay is described as follows: NCI In Vivo Anticancer Drug Screen. Data for tumor model P388 Leukemia (intraperitoneal) in CD2F1 (CDF1) mice. As to conditions: endpoint: median survival time, higher = longer survival. Put shortly: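 Mice carrying the transplanted tumor received test compound or vehicle. Survival was recorded in each group, and the value is the treated-group measurement divided by that of the vehicle-treated control group.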

Where [1] appears, read: dose: 25.0 mg/kg/injection, schedule: Q01DX005 (ip), vehicle: saline with Tween-80.
Setting [2] is: dose: 50.0 mg/kg/injection, schedule: Q01DX005 (ip), vehicle: saline with Tween-80.
Setting [3] is: dose: 100.0 mg/kg/injection, schedule: Q01DX005 (ip), vehicle: saline with Tween-80.
The mark [4] stands for this setting: dose: 12.5 mg/kg/injection, schedule: Q01DX005 (ip), vehicle: saline with Tween-80.
Where [5] appears, read: dose: 50.0 mg/kg/injection, schedule: Q01DX009 (ip), vehicle: saline with Tween-80.
Where [6] appears, read: dose: 100.0 mg/kg/injection, schedule: Q01DX009 (ip), vehicle: saline with Tween-80.
Where [7] appears, read: dose: 200.0 mg/kg/injection, schedule: Q01DX009 (ip), vehicle: saline with Tween-80.

Several values for one entry are separate records, joined by “and”; a condition that tells them apart may be missing. Equal entries are not always repeated. Toxic doses and inconclusive results are not listed.

Regarding `CCOC(=O)c1c2n(c3ccccc13)C1(C(=O)OCC)CC1(C(C)=O)C1CN21` (configuration not stated), the T/C reads like this: under setting [1], 106 % of control; under setting [2], 101 % of control and 108 % of control; under setting [3], 106 % of control and 120 % of control; (dose: 200.0 mg/kg/injection, schedule: Q01DX005 (ip), vehicle: saline with Tween-80) 117 % of control and 119 % of control.

Take `COc1ccc(Cc2c3ccccc3cc[n+]2Cc2ccccc2)cc1OC`: the T/C (dose: 6.25 mg/kg/injection, schedule: Q01DX005 (ip), vehicle: saline with Tween-80) is 103 % of control; the T/C under setting [4] is 111 % of control; the T/C under setting [1] was 111 % of control; the T/C under setting [2] was 114 % of control.

Regarding `CCCCCCCCCCCCCCCCCC(=O)CS(C)(=O)=O`, the T/C was 100 % of control (dose: 50.0 mg/kg/injection, schedule: Q01DX009 (ip), vehicle: suspension in saline); 100 % of control (dose: 100.0 mg/kg/injection, schedule: Q01DX009 (ip), vehicle: suspension in saline); 97 % of control (dose: 200.0 mg/kg/injection, schedule: Q01DX009 (ip), vehicle: suspension in saline).

Turning to `CNC(=O)Cc1ccc2cc(OC)c(OC)cc2c1`, the T/C under setting [5] was 90 % of control, the T/C under setting [6] was 95 % of control and the T/C under setting [7] was 90 % of control.

As for `CC(C)NC(=O)OCc1c(COC(=O)NC(C)C)c(-c2ccc(Cl)c(Cl)c2)n2c1CC(OC(=O)CN(C)C)C2` (configuration not stated), the T/C is, setting by setting: (dose: 2.5 mg/kg/injection, schedule: Q01DX009 (ip), vehicle: water) 101 % of control; (dose: 5.0 mg/kg/injection, schedule: Q01DX009 (ip), vehicle: distilled water + Tween-80) 111 % of control; (dose: 5.0 mg/kg/injection, schedule: Q01DX009 (ip), vehicle: water) 117 % of control; (dose: 10.0 mg/kg/injection, schedule: Q01DX009 (ip), vehicle: distilled water + Tween-80) 122 % of control; (dose: 80.0 mg/kg/injection, schedule: Q01DX009 (ip), vehicle: water) 110 % of control.

`CCc1nc(N)nc(N)c1-c1ccc(NCCc2ccccc2)c([N+](=O)[O-])c1`: the T/C was 101 % of control (dose: 50.0 mg/kg/injection, schedule: Q01DX005 (ip), vehicle: Klucel (hydroxypropylcellulose) (HPC)); 113 % of control and 124 % of control (dose: 100.0 mg/kg/injection, schedule: Q01DX005 (ip), vehicle: Klucel (hydroxypropylcellulose) (HPC)); 162 % of control (dose: 200.0 mg/kg/injection, schedule: Q01DX005 (ip), vehicle: Klucel (hydroxypropylcellulose) (HPC)); 98 % of control (dose: 400.0 mg/kg/injection, schedule: Q01DX005 (ip), vehicle: Klucel (hydroxypropylcellulose) (HPC)).

Consider `C=CCOC(=O)C12CCC(C)(C)CC1C1=CCC3C4(C)CCC(O)C(C)(CO)C4CCC3(C)C1(C)CC2` (configuration not stated), for which the T/C is 111 % of control (dose: 3.0 mg/kg/injection, schedule: Q01DX005 (ip), vehicle: saline with Tween-80); 114 % of control (dose: 6.0 mg/kg/injection, schedule: Q01DX005 (ip), vehicle: saline with Tween-80); 100 % of control (dose: 12.0 mg/kg/injection, schedule: Q01DX005 (ip), vehicle: saline with Tween-80); 92 % of control under setting [4].

On to `CNC=O`, for which the T/C (dose: 80.0 mg/kg/injection, schedule: Q01DX005 (ip), vehicle: water) was 108 % of control; the T/C (dose: 160.0 mg/kg/injection, schedule: Q01DX005 (ip), vehicle: water) was 115 % of control; the T/C (dose: 197.6 mg/kg/injection, schedule: Q01DX005 (ip), vehicle: saline) was 116 % of control; the T/C (dose: 197.6 mg/kg/injection, schedule: Q01DX005 (iv), vehicle: saline) is 120 % of control; the T/C (dose: 296.3 mg/kg/injection, schedule: Q01DX005 (ip), vehicle: water) was 107 % of control; the T/C (dose: 296.5 mg/kg/injection, schedule: Q01DX001 (ip), vehicle: saline) is 101 % of control. The T/C is 100 % of control (dose: 296.5 mg/kg/injection, schedule: Q01DX001 (iv), vehicle: saline); 118 % of control (dose: 320.0 mg/kg/injection, schedule: Q01DX005 (ip), vehicle: water); 122 % of control (dose: 444.4 mg/kg/injection, schedule: Q01DX005 (ip), vehicle: water); 104 % of control (dose: 444.5 mg/kg/injection, schedule: Q01DX001 (ip), vehicle: saline); 103 % of control (dose: 444.5 mg/kg/injection, schedule: Q01DX001 (iv), vehicle: saline); 103 % of control (dose: 444.5 mg/kg/injection, schedule: Q01DX001 (oral), vehicle: saline). Besides, the T/C reads like this: (dose: 444.5 mg/kg/injection, schedule: Q01DX009 (ip), vehicle: saline) 98 % of control; (dose: 444.5 mg/kg/injection, schedule: Q01DX009 (oral), vehicle: saline) 173 % of control; (dose: 666.7 mg/kg/injection, schedule: Q01DX001 (ip), vehicle: saline) 107 % of control; (dose: 666.7 mg/kg/injection, schedule: Q01DX001 (iv), vehicle: saline) 111 % of control; (dose: 666.7 mg/kg/injection, schedule: Q01DX001 (oral), vehicle: saline) 114 % of control; (dose: 666.7 mg/kg/injection, schedule: Q01DX005 (ip), vehicle: saline) 156 % of control. Moreover, the T/C (dose: 666.7 mg/kg/injection, schedule: Q01DX005 (ip), vehicle: water) is 166 % of control; the T/C (dose: 666.7 mg/kg/injection, schedule: Q01DX009 (ip), vehicle: saline) was 93 % of control; the T/C (dose: 666.7 mg/kg/injection, schedule: Q01DX009 (oral), vehicle: saline) is 98 % of control; the T/C (dose: 1000.0 mg/kg/injection, schedule: Q01DX001 (ip), vehicle: saline) is 116 % of control; the T/C (dose: 1000.0 mg/kg/injection, schedule: Q01DX001 (iv), vehicle: saline) was 119 % of control; the T/C (dose: 1000.0 mg/kg/injection, schedule: Q01DX001 (oral), vehicle: saline) was 116 % of control. The T/C by setting is: (dose: 1000.0 mg/kg/injection, schedule: Q01DX005 (iv), vehicle: saline) 86 % of control; (dose: 1000.0 mg/kg/injection, schedule: Q01DX005 (oral), vehicle: saline) 95 % of control; (dose: 1000.0 mg/kg/injection, schedule: Q01DX009 (oral), vehicle: saline) 98 % of control; (dose: 1280.0 mg/kg/injection, schedule: Q01DX005 (ip), vehicle: water) 161 % of control; (dose: 1500.0 mg/kg/injection, schedule: Q01DX001 (ip), vehicle: saline) 120 % of control; (dose: 1500.0 mg/kg/injection, schedule: Q01DX005 (oral), vehicle: saline) 86 % of control.

For the compound `CCCCCCCCCCCCCCC1(O)OC(=O)C(C)=C1C` (configuration not stated), the T/C is 106 % of control (dose: 12.5 mg/kg/injection, schedule: Q04DX003 (ip), vehicle: saline with Tween-80); 103 % of control (dose: 25.0 mg/kg/injection, schedule: Q04DX003 (ip), vehicle: saline with Tween-80); 106 % of control (dose: 50.0 mg/kg/injection, schedule: Q04DX003 (ip), vehicle: saline with Tween-80).

Consider `NNS(=O)(=O)c1cc(C(=O)O)cc(C(=O)O)c1`, for which the T/C was 109 % of control (dose: 100.0 mg/kg/injection, schedule: Q01DX001 (ip), vehicle: saline with Tween-80); 100 % of control (dose: 200.0 mg/kg/injection, schedule: Q01DX001 (ip), vehicle: saline with Tween-80); 90 % of control (dose: 400.0 mg/kg/injection, schedule: Q01DX001 (ip), vehicle: saline with Tween-80).

Regarding `Cc1ccc(C(=N)c2ccccc2Cc2cccc3ccccc23)c(C)c1`, the T/C by setting is: under setting [5], 92 % of control; under setting [6], 94 % of control; under setting [7], 96 % of control.

Turning to `CCCCNP1(NCCCC)=NP(NCCCC)(NCCCC)=NP(NCCCC)(NCCCC)=NP(NCCCC)(NCCCC)=N1`, the T/C is, setting by setting: under setting [4], 106 % of control; under setting [1], 116 % of control; under setting [3], 88 % of control.

Take `O=C1C(Br)=C(c2ccccc2)S(=O)(=O)c2ccccc21`: the T/C by setting is: (dose: 60.0 mg/kg/injection, schedule: Q01DX005 (ip), vehicle: Klucel (hydroxypropylcellulose) (HPC)) 109 % of control; (dose: 120.0 mg/kg/injection, schedule: Q01DX005 (ip), vehicle: Klucel (hydroxypropylcellulose) (HPC)) 114 % of control; (dose: 240.0 mg/kg/injection, schedule: Q01DX005 (ip), vehicle: Klucel (hydroxypropylcellulose) (HPC)) 114 % of control.
